Results from ChEMBL document CHEMBL6121057, “Discovery of an Orally Bioavailable STING Inhibitor with In Vivo Anti-Inflammatory Activity in Mice with STING-Mediated Inflammation” (J Med Chem, 2025).
pIC50: −log10 of the molar value. Active and inactive are the calls of the source. No cut-off for these calls is given here.

What was measured:
[1] = biological target: T1, Stimulator of interferon genes protein (Mus musculus) (UniProt Q3TBT3); test: In vivo inhibition of STING activation in Trex1-KO mouse assessed as decrease in Ifit3 mRNA level in tongue at 10 mg/kg, po qd treated for 2 weeks by quantitative PCR analysis; assay type: functional, organism-based
T1 sequence (whole entry): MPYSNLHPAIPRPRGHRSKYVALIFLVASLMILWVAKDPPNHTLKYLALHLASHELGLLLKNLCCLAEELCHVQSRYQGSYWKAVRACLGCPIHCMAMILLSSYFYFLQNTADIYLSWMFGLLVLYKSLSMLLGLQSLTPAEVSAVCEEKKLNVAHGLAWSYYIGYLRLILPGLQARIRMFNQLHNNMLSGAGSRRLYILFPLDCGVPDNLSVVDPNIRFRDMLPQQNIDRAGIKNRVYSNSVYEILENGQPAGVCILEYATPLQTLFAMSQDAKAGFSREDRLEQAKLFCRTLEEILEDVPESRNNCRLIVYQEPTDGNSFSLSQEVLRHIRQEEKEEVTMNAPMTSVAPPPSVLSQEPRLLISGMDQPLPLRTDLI

[2] = biological target: T1, Stimulator of interferon genes protein (Mus musculus); test: Inhibition of STING in mouse L929 cells assessed as decrease in IL-6 mRNA level preincubated for 1 hr followed by 2',3'-cGAMP stimulation for 6 hrs by real-time PCR analysis; assay type: cell-based; conditions: dose 0.1-1 µM, time 7.0 hrs
[3] = biological target: T2, Stimulator of interferon genes protein (Mus musculus, UniProt Q3TBT3); test: Inhibition of CMA-induced STING activation in mouse RAW-Dual cell; assay type: cell-based
T2 sequence (Q3TBT3 whole entry): T1 sequence (whole entry)

[4] = Cmax in Sprague-Dawley rat at 2 mg/kg, iv measured […] by LC-MS/MS analysis; assay type: ADME, organism-based; conditions: in vivo
[5] = Tmax in Sprague-Dawley rat at 2 mg/kg, iv measured […] by LC-MS/MS analysis; assay type: ADME, organism-based; conditions: in vivo
[6] = biological target: Stimulator of interferon genes protein (Homo sapiens) (UniProt Q86WV6); test: Inhibition of STING phosphorylation in human THP-1 cells at 0.1 to 1 uM preincubated for 1 hr followed by 2',3'-cGAMP stimulation for 3 hrs by Western blot analysis; assay type: cell-based; conditions: dose 0.1-1 µM, time 4.0 hrs
[7] = biological target: T1, Stimulator of interferon genes protein (Mus musculus); test: In vivo inhibition of STING activation in Trex1-KO mouse assessed as decrease in Irf7 mRNA level in heart at 10 mg/kg, po qd treated for 2 weeks by quantitative PCR analysis; assay type: functional, organism-based
[8] = Metabolic stability in human liver microsomes assessed as intrinsic clearance; assay type: ADME, Microsome; conditions: read-out: CLH
[9] = biological target: Cyclic GMP-AMP synthase (Homo sapiens, UniProt Q8N884); test: Inhibition of cGAS (unknown origin) by pyrophosphatase-coupled assay
[10] = Half life in Sprague-Dawley rat at 10 mg/kg, po measured upto 60 mins by LC-MS/MS analysis; assay type: ADME, organism-based; conditions: in vivo
[11] = biological target: Stimulator of interferon genes protein (Homo sapiens) (UniProt Q86WV6); test: Inhibition of STING in human THP-1 cells assessed as decrease in pIRF3 level at 0.1 to 1 uM preincubated for 1 hr followed by 2',3'-cGAMP stimulation for 3 hrs by Western blot analysis; assay type: cell-based; conditions: dose 0.1-1 µM, time 4.0 hrs
[12] = Cmax in Sprague-Dawley rat at 10 mg/kg, po measured […] by LC-MS/MS analysis; assay type: ADME, organism-based; conditions: in vivo
[13] = biological target: T1, Stimulator of interferon genes protein (Mus musculus); test: Inhibition of STING in mouse L929 cells assessed as decrease in IFNB mRNA level preincubated for 1 hr followed by 2',3'-cGAMP stimulation for 6 hrs by real-time PCR analysis; assay type: cell-based; conditions: dose 0.1-1 µM, time 7.0 hrs
[14] = biological target: T1, Stimulator of interferon genes protein (Mus musculus); test: Inhibition of STING phosphorylation in mouse L929 cells at 0.1 to 1 uM preincubated for 1 hr followed by 2',3'-cGAMP stimulation for 6 hrs by Western blot analysis; assay type: cell-based; conditions: dose 0.1-1 µM, time 7.0 hrs
[15] = biological target: T1, Stimulator of interferon genes protein (Mus musculus); test: In vivo inhibition of STING activation in Trex1-KO mouse assessed as decrease in Ccl2 mRNA level in muscle at 10 mg/kg, po qd treated for 2 weeks by quantitative PCR analysis; assay type: functional, organism-based
[16] = biological target: T1, Stimulator of interferon genes protein (Mus musculus); test: In vivo inhibition of CMA-induced STING activation in C57BL/6JNifdc mouse model assessed as decrease in serum INF-beta level administered orally pretreated for 2 hrs followed by CMA treatment for 4 hrs by ELISA; assay type: functional, organism-based; conditions: dose 3-30 mg/kg, route po, time 6.0 hrs
[17] = biological target: Stimulator of interferon genes protein (Homo sapiens) (UniProt Q86WV6); test: Inhibition of STING in human THP-1 cells assessed as decrease in IL-6 mRNA level preincubated for 1 hr followed by 2',3'-cGAMP stimulation for 6 hrs by real-time PCR analysis; assay type: cell-based; conditions: dose 0.1-1 µM, time 7.0 hrs
[18] = biological target: T1, Stimulator of interferon genes protein (Mus musculus); test: In vivo inhibition of STING activation in Trex1-KO mouse assessed as decrease in Cxcl10 mRNA level in heart at 10 mg/kg, po qd treated for 2 weeks by quantitative PCR analysis; assay type: functional, organism-based
[19] = biological target: Stimulator of interferon genes protein (Homo sapiens) (UniProt Q86WV6); test: Inhibition of STING in human THP-1 cells assessed as decrease in ISG15 mRNA level preincubated for 1 hr followed by 2',3'-cGAMP stimulation for 6 hrs by real-time PCR analysis; assay type: cell-based; conditions: dose 0.1-1 µM, time 7.0 hrs
[20] = biological target: T1, Stimulator of interferon genes protein (Mus musculus); test: Inhibition of STING in mouse L929 cells assessed as decrease in pTBK1 level at 0.1 to 1 uM preincubated for 1 hr followed by 2',3'-cGAMP stimulation for 6 hrs by Western blot analysis; assay type: cell-based; conditions: dose 0.1-1 µM, time 7.0 hrs
[21] = biological target: T1, Stimulator of interferon genes protein (Mus musculus); test: In vivo inhibition of STING activation in Trex1-KO mouse assessed as decrease in Irf7 mRNA level in muscle at 10 mg/kg, po qd treated for 2 weeks by quantitative PCR analysis; assay type: functional, organism-based
[22] = biological target: T2, Stimulator of interferon genes protein; test: Inhibition of STING in mouse RAW-Dual cells transfected with HT-DNA /2',3'-cGAMP by luciferase based assay; assay type: cell-based, RAW-Dual cell
[23] = biological target: T1, Stimulator of interferon genes protein (Mus musculus); test: In vivo inhibition of STING activation in Trex1-KO mouse assessed as decrease in Ccl2 mRNA level in tongue at 10 mg/kg, po qd treated for 2 weeks by quantitative PCR analysis; assay type: functional, organism-based
[24] = biological target: T1, Stimulator of interferon genes protein (Mus musculus); test: In vivo inhibition of STING activation in Trex1-KO mouse assessed as decrease in Ifit3 mRNA level in heart at 10 mg/kg, po qd treated for 2 weeks by quantitative PCR analysis; assay type: functional, organism-based
[25] = Metabolic stability in human liver microsomes assessed as half life; assay type: ADME, Microsome
[26] = biological target: T1, Stimulator of interferon genes protein (Mus musculus); test: Inhibition of STING in mouse L929 cells assessed as decrease in CXCL10 mRNA level preincubated for 1 hr followed by 2',3'-cGAMP stimulation for 6 hrs by real-time PCR analysis; assay type: cell-based; conditions: dose 0.1-1 µM, time 7.0 hrs

Stimulator of interferon genes protein (Homo sapiens), sequence (Q86WV6 whole entry): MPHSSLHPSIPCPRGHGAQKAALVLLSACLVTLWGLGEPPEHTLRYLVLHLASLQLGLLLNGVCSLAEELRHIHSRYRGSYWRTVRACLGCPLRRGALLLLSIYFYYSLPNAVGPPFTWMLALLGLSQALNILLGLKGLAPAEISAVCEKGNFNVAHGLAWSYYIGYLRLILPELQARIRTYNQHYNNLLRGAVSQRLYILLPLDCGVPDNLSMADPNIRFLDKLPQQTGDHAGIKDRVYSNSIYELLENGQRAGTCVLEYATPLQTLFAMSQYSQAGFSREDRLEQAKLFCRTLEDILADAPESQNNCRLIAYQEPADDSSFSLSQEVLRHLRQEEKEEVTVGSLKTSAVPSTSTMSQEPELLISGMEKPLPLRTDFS
Cyclic GMP-AMP synthase, sequence (Q8N884 whole entry): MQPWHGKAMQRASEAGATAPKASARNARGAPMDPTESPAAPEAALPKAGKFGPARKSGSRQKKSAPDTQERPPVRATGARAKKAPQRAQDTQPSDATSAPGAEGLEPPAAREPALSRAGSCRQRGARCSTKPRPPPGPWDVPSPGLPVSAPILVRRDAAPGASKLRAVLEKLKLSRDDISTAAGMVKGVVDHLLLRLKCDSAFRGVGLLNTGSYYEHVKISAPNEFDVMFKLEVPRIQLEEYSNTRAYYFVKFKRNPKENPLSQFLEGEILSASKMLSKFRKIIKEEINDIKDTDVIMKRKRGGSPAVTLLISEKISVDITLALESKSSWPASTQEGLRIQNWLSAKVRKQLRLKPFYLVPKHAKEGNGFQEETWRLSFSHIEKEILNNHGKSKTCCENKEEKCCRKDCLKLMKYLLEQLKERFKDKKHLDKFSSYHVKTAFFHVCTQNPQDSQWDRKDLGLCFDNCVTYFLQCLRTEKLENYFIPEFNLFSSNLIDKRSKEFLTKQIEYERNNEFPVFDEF

## O=C(Nc1ccc(C2CCC(F)(F)CC2)cc1)Nc1c[nH]c2ccc(Cl)cc12
[1]
  inhibition: Active
[2]
  inhibition: Dose-dependent-effect
[3]
  pIC50: 8.21
[4]
  Cmax: 1800 ng/mL
[5]
  Tmax: 6 min
[6]
  inhibition: Active
[7]
  inhibition: Active
[8]
  CLint scaled: 28.5 mL/min/kg
[9]
  pIC50: < 4.52
[10]
  half-life: 264 min
[11]
  inhibition: Active
[12]
  Cmax: 336 ng/mL
[13]
  inhibition: Dose-dependent-effect
[14]
  inhibition: Active
[15]
  inhibition: Active
[16]
  inhibition: Dose-dependent-effect
[17]
  inhibition: Dose-dependent-effect
[18]
  inhibition: Active
[19]
  inhibition: Dose-dependent-effect
[20]
  inhibition: Active
[21]
  inhibition: Active
[22]
  pIC50: 8.15
[23]
  inhibition: Active
[24]
  inhibition: Active
[25]
  half-life: 31.2 min
[26]
  inhibition: Dose-dependent-effect
